The test system of one data set is HeLa S3 cells. The experiment in a line: Cellular deacetylase assay (TSA-insensitive FdL deacetylation). Format: cell-based, human. Particulars: 500 μM compound, 200 μM FdL, 1 μM TSA, 1 hour. How it is done: FdL (200 μM) is added to growth media and cells incubated for 1-3 hours to allow FdL to enter the cells and the lysine-deacetylated product (deAc-FdL) to accumulate intracellularly. Cells are lysed with detergent in the presence of 1 μM TSA, 1 mM nicotinamide. Addition of the non-cell-permeable Developer (BIOMOL) releases a fluorophor, specifically from deAc-FdL. b, SIRT1 activating polyphenols can stimulate TSA-insensitive, FdL deacetylation by HeLa S3 cells. Cells were grown adherently in DMEM/10% FCS and treated for 1 hour with 200 μM FdL, 1 μM TSA and either vehicle (0.5% final DMSO, Control) or 500 μM of the indicated compound. Intracellular accumulation of deAc-FdL was then determined as described briefly in a. […] Lysates were prepared and analyzed as above. […]
Themed compound libraries (BIOMOL) were used for primary and secondary screening. […] In vitro fluorescence assay results were read in white ½-volume 96-well microplates (Corning Costar 3693) with a CytoFluor™ II fluorescence plate reader (PerSeptive Biosystems, Ex. 360 nm, Em. 460 nm, gain=85). HeLa cells were grown and the cellular deacetylation assays were performed and read, as above, but in full-volume 96-well microplates (Corning Costar 3595). […]

Another data set has as its system C. elegans. The experiment in a line: C. elegans fat accumulation, Nile Red staining. Format: in vivo. Particulars: 100 μM. How it is done: Fat accumulation was visualized with Nile Red staining, as described further below and in Ashrafi K, et al. Nature 421:268-27 (2003).
Synchronized starved L1 worms were grown in the presence of Nile Red. Strains were grown on NGM plates at 25° C. for approximately 48 hours until the young adult stage was reached. 20-30 young adult worms were then washed 2× with M9 buffer and transferred to new NGM/Nile red experimental plates that contained either OP50 or HTT5 E. coli carrying the L4440 RNAi control vector.
Young adults were transferred to plates containing the appropriate vector, Nile Red stain and drug then maintained at 25° C.
Nile Red: Nile Red Powder (Sigma #N-3013) was dissolved in acetone at 500 μg/ml, diluted in 1× Phosphate Buffered Saline (PBS) including appropriate drug and applied to surface of Nematode Growth Media (NGM) plates previously seeded with OP50 or RNAi bacteria, at a final concentration of 0.05 μg/ml. Fat content was monitored and recorded by fluorescence microscopy.

A further data set addresses T1, recombinant human SIRT1 (Homo sapiens, UniProt Q96EB6).
T1 sequence (Q96EB6 1-747): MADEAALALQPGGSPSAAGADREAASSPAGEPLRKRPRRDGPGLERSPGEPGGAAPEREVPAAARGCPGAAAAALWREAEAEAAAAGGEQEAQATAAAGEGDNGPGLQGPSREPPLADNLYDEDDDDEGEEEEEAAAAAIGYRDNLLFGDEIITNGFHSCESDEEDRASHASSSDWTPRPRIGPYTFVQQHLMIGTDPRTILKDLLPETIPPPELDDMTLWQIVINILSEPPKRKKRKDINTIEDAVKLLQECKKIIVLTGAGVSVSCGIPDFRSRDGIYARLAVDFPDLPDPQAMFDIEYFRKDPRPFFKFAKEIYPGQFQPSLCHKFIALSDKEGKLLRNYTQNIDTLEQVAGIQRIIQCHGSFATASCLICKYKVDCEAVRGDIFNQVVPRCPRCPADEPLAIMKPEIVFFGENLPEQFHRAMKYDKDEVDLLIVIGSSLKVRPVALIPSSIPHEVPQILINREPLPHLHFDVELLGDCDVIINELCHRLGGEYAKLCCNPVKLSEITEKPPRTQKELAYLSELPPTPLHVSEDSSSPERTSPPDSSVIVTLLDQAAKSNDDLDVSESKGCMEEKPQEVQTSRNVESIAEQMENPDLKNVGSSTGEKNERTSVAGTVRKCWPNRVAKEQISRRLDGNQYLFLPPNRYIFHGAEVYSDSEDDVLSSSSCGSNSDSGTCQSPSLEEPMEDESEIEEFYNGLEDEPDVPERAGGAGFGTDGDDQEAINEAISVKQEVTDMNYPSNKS
The experiment in a line: SIRT1 fluorescent deacetylation assay (p53-382 acetylated peptide). Format: biochemical.

A further data set concerns Human 293. The experiment in a line: Survival of 293 cells (Coulter counter). As to conditions: 50 micromolar. Format: cell-based. The text has this:
The number of live cells each time point was counted using a Coulter counter.

Procedure for recombinant human SIRT1: To identify compounds that modulate SIRT1 activity, a number of small molecule libraries were screened using a fluorescent deacetylation assay in 96-well plates^26. The substrate used in the assay was a fluorogenic peptide based on the sequence encompassing the p53-K382 acetylation site, a known target of SIRT1 in vivo^20,21,27. […] The small molecule libraries included analogues of nicotinamide, ε-acetyl lysine, NAD^+, nucleotides, nucleotide analogues and purinergic ligands.
From 0.1 to 1 μg of SIRT1 and 1.5 μg of Sir2 were used per deacetylation assay (in 50 μl total reaction) as previously described^26. SIRT1 assays and certain of those for Sir2 employed the p53-382 acetylated substrate (‘Fluor de Lys-SIRT1’, BIOMOL) rather than FdL.
Themed compound libraries (BIOMOL) were used for primary and secondary screening. Most polyphenol compounds were dissolved at 10 mM in dimethylsulfoxide (DMSO) on the day of the assay. For water soluble compounds and negative controls, 1% v/v DMSO was added to the assay. In vitro fluorescence assay results were read in white ½-volume 96-well microplates (Corning Costar 3693) with a CytoFluor™ II fluorescence plate reader (PerSeptive Biosystems, Ex. 360 nm, Em. 460 nm, gain=85). […] Unless otherwise indicated all initial rate measurements were means of three or more replicates, obtained with single incubation times, at which point 5% or less of the substrate initially present had been deacetylated. Calculation of net fluorescence increases included subtraction of a blank value, which in the case of Sir2 was obtained by omitting the enzyme from the reaction and in the case of SIRT1 by adding an inhibitor (200 μM suramin or 1 mM nicotinamide) to the reaction prior to the acetylated substrate. A number of the polyphenols partially quenched the fluorescence produced in the assay and correction factors were obtained by determining the fluorescence increase due to a 3 μM spike of an FdL deacetylated standard (BIOMOL, catalog number KI-142). All error bars represent the standard error of the mean.
All SIRT1 rate measurements used in the calculation of “Ratio to Control Rate” were obtained with 25 μM NAD^+ and 25 μM p53-382 acetylated peptide substrate were performed as described above and in K. T. Howitz et al. Nature (2003) 425: 191. All ratio data were calculated from experiments in which the total deacetylation in the control reaction was 0.25-1.25 μM peptide or 1-5% of the initial concentration of acetylated peptide.

`O=C(/C=C/c1ccc(O)c(O)c1)c1ccc(O)cc1O` [butein, 3,4,2′,4′-Tetrahydroxychalcone]: the “Effect on the cellular (TSA-insensitive) deacetylation signal” value with HeLa S3 cells is “no effect”. For the same molecule, the Fat mobilization entry in the data set with C. elegans (48 hours) was “stimulate fat mobilization”.

In the case of `CSc1ccc(/C=C/c2cc(O)cc(O)c2)cc1` [BML-230, 3,5-dihydroxy-4′-thiomethyl-trans-stilbene], the “v1/v2 (rate for pure SIRT1/BML-230 divided by that for pure SIRT1/resveratrol)” value on recombinant human SIRT1 (R at 500 μM) is on record as ≤ 1.4. The “Stimulated SIRT1 activity compared with resveratrol” value on recombinant human SIRT1 (all concentrations tested, 25 μM NAD+ and p53-382 peptide, 20 minutes) is listed as “exceeds”. For the same molecule, the “Dissociation constant of SIRT1 complex compared with SIRT1/resveratrol” value on recombinant human SIRT1 (inferred from two state model) is on record as “lower dissociation constant”. Moreover, the “Toxicity on 293 cells (in words)” value in the data set with Human 293 is reported as “The results indicate that thiomethyl (BML-230) was the least toxic on 293 cells”. Further, the Fat staining entry with C. elegans (24 hours, control 1% v/v DMSO) is given as “Significant reduction”.

(Values after patent US20060276416A1, “Methods and compositions for treating flushing and drug induced weight gain” (Sirtris Pharmaceuticals, Inc., priority 2005, published 2006).)
